# Where “and” joins values, the source holds several entries; their conditions need not be identical. Identical values can stand only once. Like-named read-outs stand apart in the source and are kept apart here.
# Key:
# [1] = tested on: L. salivarius MP98; test: Sensitivity to antibiotics by E-test (MIC); type: cell-based, Ligilactobacillus salivarius; set-up: MIC value: unit not given here
# [2] = Recurrent gout trial: blood biochemical parameters (uric acid, lipids, transaminases); type: in vivo, human
# [3] = Recurrent gout trial: gout episodes and intake of gout-related drugs; type: in vivo, human; conditions: control group (allopurinol), individual patients 1-15
# [4] = Recurrent gout trial: oxidative stress (OS)-related parameters and NOx in plasma; type: in vivo, human
# [5] = human, in vivo; cited from earlier work
# [6] = control group (allopurinol), individual patients 1-15, serum, after finishing the study
# [7] = control group, before starting the study, individual patients 1-15
# [8] = drug intake recorded through the study
# [9] = control group (allopurinol), individual patients 1-15, plasma, after finishing the study
# [10] = control group, before starting the study, individual patients 1-15, normalized per mg protein
# [11] = control group, before starting the study, individual patients 1-15, plasma concentration (µmol/L)
# [12] = MIC of the antibiotic to L. salivarius MP98, E-test
compound,measurement,setting,value
"NC[C@H]1O[C@H](O[C@H]2[C@H](O)[C@@H](O[C@H]3O[C@H](CO)[C@@H](O)[C@H](N)[C@H]3O)[C@H](N)C[C@@H]2N)[C@H](O)[C@@H](O)[C@@H]1O [KAN, kanamycin]",MIC,"[1]; Ligilactobacillus salivarius, MIC of the antibiotic to L. salivarius MP98",128 µg/mL
Oc1ncnc2[nH]ncc12 [allopurinol],GOT (UI/L),[2]; [6],20.05 UI/L and 22.63 UI/L and 37.84 UI/L and 37.28 UI/L and 33.57 UI/L and 27.60 UI/L and 37.24 UI/L and 21.94 UI/L and 40.68 UI/L and 41.07 UI/L and 39.21 UI/L and 31.82 UI/L and 32.99 UI/L and 38.57 UI/L and 32.42 UI/L
same,GPT (UI/L),[2]; [6],19.97 UI/L and 27.46 UI/L and 44.90 UI/L and 27.61 UI/L (2×) and 43.27 UI/L and 53.45 UI/L and 34.73 UI/L and 27.08 UI/L and 59.99 UI/L and 53.87 UI/L and 35.57 UI/L and 39.40 UI/L and 44.47 UI/L and 33.84 UI/L
same,Total cholesterol,[2]; [6],172.63 mg/dL and 176.04 mg/dL and 206.72 mg/dL and 196.82 mg/dL and 183.24 mg/dL and 194.32 mg/dL and 176.47 mg/dL and 170.51 mg/dL and 224.95 mg/dL and 199.08 mg/dL and 193.84 mg/dL and 181.94 mg/dL and 178.63 mg/dL and 187.14 mg/dL and 183.02 mg/dL
same,Triglycerides,[2]; [6],157.81 mg/dL and 153.17 mg/dL and 169.90 mg/dL and 158.47 mg/dL and 165.58 mg/dL and 164.25 mg/dL and 162.81 mg/dL and 165.45 mg/dL and 189.72 mg/dL and 171.63 mg/dL and 154.57 mg/dL and 165.16 mg/dL and 163.83 mg/dL and 160.02 mg/dL and 168.91 mg/dL
same,Uric acid,[2]; [6],7.11 mg/dl and 7.46 mg/dl and 9.68 mg/dl and 8.87 mg/dl and 7.64 mg/dl and 9.61 mg/dl and 8.69 mg/dl and 7.90 mg/dl and 10.92 mg/dl and 10.87 mg/dl and 9.12 mg/dl (2×) and 8.57 mg/dl and 10.49 mg/dl and 9.38 mg/dl
same,"any parameter, T1 against T2 samples","[2]; control group, 100-300 mg/daily for one year",no differences in any parameter
same,GOT,[2]; [7],20.94 UI/L and 24.52 UI/L and 38.57 UI/L and 36.71 UI/L and 35.83 UI/L and 25.11 UI/L and 35.37 UI/L and 21.62 UI/L and 42.75 UI/L and 40.28 UI/L and 37.01 UI/L and 30.17 UI/L and 34.88 UI/L and 39.64 UI/L and 30.53 UI/L
same,GPT,[2]; [7],19.32 UI/L and 25.75 UI/L and 47.78 UI/L and 29.19 UI/L and 42.81 UI/L and 55.07 UI/L and 30.64 UI/L and 25.55 UI/L and 54.98 UI/L and 49.91 UI/L and 37.56 UI/L and 30.07 UI/L and 40.39 UI/L and 45.29 UI/L and 30.37 UI/L
same,Total cholesterol,[2]; [7],170.45 mg/dl and 179.39 mg/dl and 208.16 mg/dl and 195.37 mg/dl (2×) and 188.31 mg/dl and 192.43 mg/dl and 177.63 mg/dl and 169.04 mg/dl and 229.46 mg/dl and 197.18 mg/dl and 184.41 mg/dl and 176.25 mg/dl and 184.30 mg/dl and 185.19 mg/dl
same,Triglycerides,[2]; [7],152.07 mg/dL and 151.28 mg/dL and 172.29 mg/dL and 155.83 mg/dL and 166.74 mg/dL and 162.41 mg/dL and 168.02 mg/dL and 162.33 mg/dL and 187.99 mg/dL and 172.25 mg/dL and 160.86 mg/dL and 162.25 mg/dL and 167.27 mg/dL and 162.91 mg/dL and 168.28 mg/dL
same,Uric acid,[2]; [7],7.03 mg/dl and 7.53 mg/dl and 9.97 mg/dl and 8.44 mg/dl (2×) and 7.56 mg/dl and 9.99 mg/dl and 7.81 mg/dl and 10.64 mg/dl and 11.69 mg/dl and 9.20 mg/dl and 8.24 mg/dl and 10.05 mg/dl and 9.92 mg/dl and 9.06 mg/dl
same,Gout episodes (during study period),[3],0 (2×) and 1 (8×) and 2 (4×) and 3
same,Gout episodes (9 previous months),[3]; 9 months before the study (baseline),1 (5×) and 2 (8×) and 0 and 3
same,Doses Allopurinol,[3]; [8],180 (4×) and 175 (2×) and 174 (2×) and 168 and 178 and 179 (2×) and 172 and 176 and 177
same,Doses Colchicin,[3]; [8],0 (2×) and 4 (6×) and 8 (3×) and 2 (2×) and 12 and 6
same,Doses ibuprofen and similar AINS,[3]; [8],0 (2×) and 8 and 12 (2×) and 6 (4×) and 16 and 4 (2×) and 1 and 3 (2×)
same,8-isoprostaglandin Fzs,[4]; [9],166.1 pg/mL and 162.9 pg/mL and 205.9 pg/mL and 164.8 pg/mL and 175.0 pg/mL and 192.4 pg/mL and 204.7 pg/mL and 165.2 pg/mL and 205.1 pg/mL and 207.1 pg/mL and 195.9 pg/mL and 164.5 pg/mL and 186.3 pg/mL and 191.9 pg/mL and 175.8 pg/mL
same,AOPPs,[4]; [9],54.87 µmol/L and 57.96 µmol/L and 66.12 µmol/L and 58.27 µmol/L and 62.35 µmol/L and 64.76 µmol/L and 60.56 µmol/L and 57.71 µmol/L and 65.70 µmol/L and 63.68 µmol/L and 60.94 µmol/L and 59.37 µmol/L and 61.97 µmol/L and 64.14 µmol/L and 59.82 µmol/L
same,AOPPs (nmol/mg protein),[4]; [9],0.72 nmol/mg protein and 0.75 nmol/mg protein (2×) and 0.83 nmol/mg protein (2×) and 0.76 nmol/mg protein (2×) and 0.78 nmol/mg protein (2×) and 0.80 nmol/mg protein (2×) and 0.77 nmol/mg protein and 0.82 nmol/mg protein and 0.81 nmol/mg protein (2×)
same,MDA,[4]; [9],1.78 μmol/L and 1.83 μmol/L and 2.37 μmol/L and 1.84 μmol/L (2×) and 2.14 μmol/L and 2.09 μmol/L and 1.81 μmol/L (2×) and 2.29 μmol/L and 2.22 μmol/L and 2.01 μmol/L and 1.74 μmol/L and 2.27 μmol/L and 2.08 μmol/L
same,NOx,[4]; [9],21.32 µmol/L and 19.26 µmol/L and 23.87 µmol/L and 22.75 µmol/L and 21.13 µmol/L and 24.97 µmol/L and 24.59 µmol/L and 22.33 µmol/L and 26.43 µmol/L and 28.07 µmol/L and 24.07 µmol/L and 24.81 µmol/L and 25.79 µmol/L and 25.95 µmol/L and 22.68 µmol/L
same,Nitrate,[4]; [9],16.92 µmol/L and 16.86 µmol/L and 28.79 µmol/L and 19.85 µmol/L and 21.04 µmol/L and 23.87 µmol/L and 22.81 µmol/L and 17.40 µmol/L and 26.73 µmol/L and 27.47 µmol/L and 22.10 µmol/L and 17.49 µmol/L and 21.36 µmol/L and 25.27 µmol/L and 20.31 µmol/L
same,Nitrite,[4]; [9],1.82 µmol/L and 1.87 µmol/L and 2.29 µmol/L and 1.67 µmol/L and 2.03 µmol/L and 2.24 µmol/L and 2.27 µmol/L and 1.84 µmol/L and 2.02 µmol/L and 2.22 µmol/L and 2.19 µmol/L and 1.77 µmol/L and 2.26 µmol/L and 2.20 µmol/L and 1.88 µmol/L
same,SH groups,[4]; [9],429.5 µmol/L and 423.6 µmol/L and 448.1 µmol/L and 429.7 µmol/L and 435.4 µmol/L and 430.2 µmol/L and 431.0 µmol/L and 426.3 µmol/L and 451.8 µmol/L and 436.7 µmol/L and 436.1 µmol/L and 433.4 µmol/L and 436.8 µmol/L and 432.7 µmol/L and 431.3 µmol/L
same,SH groups (nmol/mg protein),[4]; [9],5.19 nmol/mg protein and 5.21 nmol/mg protein and 5.72 nmol/mg protein and 5.41 nmol/mg protein (2×) and 5.42 nmol/mg protein and 5.36 nmol/mg protein and 5.23 nmol/mg protein and 6.02 nmol/mg protein and 5.59 nmol/mg protein and 5.48 nmol/mg protein and 5.47 nmol/mg protein and 5.43 nmol/mg protein and 5.74 nmol/mg protein and 5.52 nmol/mg protein
same,TBARM,[4]; [9],22.89 µmol/L and 23.48 µmol/L and 29.92 µmol/L and 27.01 µmol/L and 27.83 µmol/L and 27.59 µmol/L and 29.04 µmol/L and 25.67 µmol/L and 25.91 µmol/L and 28.75 µmol/L and 26.32 µmol/L and 24.81 µmol/L and 27.09 µmol/L and 28.27 µmol/L and 24.86 µmol/L
same,8-isoprostaglandin F2α,[4]; [7],161.7 pg/mL and 209.0 pg/mL and 162.6 pg/mL and 177.1 pg/mL and 195.2 pg/mL and 207.3 pg/mL and 160.9 pg/mL and 202.4 pg/mL and 207.5 pg/mL and 194.8 pg/mL and 166.1 pg/mL and 184.9 pg/mL and 195.7 pg/mL and 174.4 pg/mL and 162.2 pg/mL
same,MDA,[4]; [7],1.86 μmol/L and 2.41 μmol/L (2×) and 1.78 μmol/L and 2.02 μmol/L and 1.99 μmol/L and 1.92 μmol/L and 1.79 μmol/L and 2.17 μmol/L and 2.09 μmol/L and 1.83 μmol/L and 2.19 μmol/L and 2.00 μmol/L and 1.87 μmol/L and 1.74 μmol/L
same,NOx,[4]; [7],19.01 µmol/L and 18.98 µmol/L and 25.67 µmol/L and 21.48 µmol/L and 21.66 µmol/L and 25.18 µmol/L and 24.07 µmol/L and 20.01 µmol/L and 28.23 µmol/L and 27.09 µmol/L and 25.56 µmol/L and 22.29 µmol/L and 26.86 µmol/L and 24.48 µmol/L and 23.16 µmol/L
same,Nitrate,[4]; [7],16.85 µmol/L and 16.77 µmol/L and 31.12 µmol/L and 19.64 µmol/L and 22.48 µmol/L and 23.99 µmol/L and 20.29 µmol/L and 16.93 µmol/L and 27.46 µmol/L and 28.65 µmol/L and 20.92 µmol/L and 17.03 µmol/L and 22.52 µmol/L and 24.81 µmol/L and 20.02 µmol/L
same,Nitrite,[4]; [7],1.73 μmol/L and 1.81 μmol/L and 2.41 μmol/L and 1.79 μmol/L and 2.12 μmol/L and 2.11 μmol/L (2×) and 2.06 μmol/L and 1.71 μmol/L and 2.14 μmol/L (2×) and 2.27 μmol/L and 1.84 μmol/L and 2.21 μmol/L and 1.92 μmol/L
same,TBARM,[4]; [7],22.93 µmol/L and 31.02 µmol/L and 24.76 µmol/L and 26.91 µmol/L and 28.14 µmol/L and 27.31 µmol/L and 24.97 µmol/L and 27.28 µmol/L and 27.99 µmol/L and 27.43 µmol/L and 23.07 µmol/L and 28.11 µmol/L and 28.00 µmol/L and 25.79 µmol/L and 23.16 µmol/L
same,AOPPs,[4]; [10],0.74 nmol/mg protein and 0.83 nmol/mg protein and 0.75 nmol/mg protein (2×) and 0.78 nmol/mg protein and 0.81 nmol/mg protein (2×) and 0.77 nmol/mg protein (2×) and 0.73 nmol/mg protein (2×) and 0.84 nmol/mg protein and 0.82 nmol/mg protein and 0.79 nmol/mg protein and 0.80 nmol/mg protein
same,SH groups,[4]; [10],5.23 nmol/mg protein and 5.84 nmol/mg protein and 5.37 nmol/mg protein and 5.44 nmol/mg protein and 5.45 nmol/mg protein and 5.39 nmol/mg protein and 5.11 nmol/mg protein and 6.10 nmol/mg protein and 5.54 nmol/mg protein and 5.59 nmol/mg protein and 5.42 nmol/mg protein and 5.48 nmol/mg protein and 5.79 nmol/mg protein and 5.51 nmol/mg protein and 5.14 nmol/mg protein
same,AOPPs,[4]; [11],57.87 µmol/L and 65.77 µmol/L and 59.02 µmol/L and 62.29 µmol/L and 64.83 µmol/L and 60.36 µmol/L and 58.95 µmol/L and 65.81 µmol/L and 63.52 µmol/L and 61.07 µmol/L and 59.50 µmol/L and 61.92 µmol/L and 64.34 µmol/L and 59.71 µmol/L and 55.91 µmol/L
same,SH groups,[4]; [11],425.7 μmol/L and 442.0 μmol/L and 427.9 μmol/L and 441.5 μmol/L and 432.7 μmol/L (2×) and 433.9 μmol/L and 425.9 μmol/L and 448.3 μmol/L and 434.9 μmol/L (2×) and 438.4 μmol/L and 435.1 μmol/L and 432.2 μmol/L and 426.6 μmol/L
same,patients in gout therapy achieving serum urate levels <6 mg/dl (<0.35 mmol/L),[5],20-40%
Cc1nc(-c2ccc(OCC(C)C)c(C#N)c2)sc1C(=O)O [febuxostat],patients in gout therapy achieving serum urate levels <6 mg/dl (<0.35 mmol/L),[5],45-67%
gentamycin,MIC value,[1]; [12],2
penicillin,MIC value,[1],0.25
virginiamycin,MIC value,[1]; [12],0.25

# Source: US20260250626A1, “LACTOBACILLUS SALIVARIUS STRAINS AND USES THEREOF” (CHEMO RESEARCH, S.L., priority 2022, published 2026)
